Laboratory results as given in patent US11152578B2, “Sulfonium salts of DNTT and related compounds as soluble photocleavable precursors for organic semiconductors for use in organic field-effect transistors” (Clap Co., Ltd., priority 2017, dated 2021).
Read-outs that look alike come from different tables or passages of the source.

Key:
[1] = Solubility in various solvents at 25° C.; format: physicochemical; settings: organic solvent or mixture
Procedure: The solubility of the compound 1Aa at 25° C. was compared to the solubility of compound 2Aa in various solvents.

[2] = background statement, no solvent given; cited from earlier work
[3] = CH3CN, read-out: solubility in CH3CN
[4] = CHCl3, read-out: solubility in CHCl3
[5] = DMF, read-out: solubility in DMF

SMILES	solubility [1, 3] [µg/mL]	solubility [1, 4] [µg/mL]	solubility [1, 5] [µg/mL]	solubility (in words) [2]
CCC(C)(C)c1ccc(-[s+]2c3cc4ccccc4cc3c3sc4cc5ccccc5cc4c32)cc1.F[B-](F)(F)F (stereo not shown) [Compound 1Aa]	5000	5000	8000	
c1ccc2cc3c(cc2c1)sc1c2cc4ccccc4cc2sc31 [Compound 2Aa, dinaphtho[2,3-b:2′,3′-f]thieno[3,2-b]thiophene]	< 1000	< 1000	< 1000	low solubility
